Results taken from the NIST ThermoML archive (doi:10.1021/je201116t).
± gives the expanded uncertainty stated by the source.

Tests used:
[1] = 101 kPa, Liquid; for viscosity: Capillary tube (Ostwald / Ubbelohde) method
[2] = xn = mol fraction of the nth substance listed; conditions: 101 kPa, Liquid, x1 = 1; for viscosity: Capillary tube (Ostwald / Ubbelohde) method

Row | mass density ([1]; 298.15 K) [kg/m3] | viscosity ([1]; 298.15 K) [mPa·s] | mass density ([1]; 303.15 K) [kg/m3] | viscosity ([1]; 303.15 K) [mPa·s] | mass density ([1]; 308.15 K) [kg/m3] | viscosity ([1]; 308.15 K) [mPa·s] | mass density ([1]; 313.15 K) [kg/m3] | viscosity ([1]; 313.15 K) [mPa·s] | viscosity ([2]; 298.15 K) [mPa·s] | mass density ([2]; 298.15 K) [kg/m3] | viscosity ([2]; 303.15 K) [mPa·s] | mass density ([2]; 303.15 K) [kg/m3] | viscosity ([2]; 308.15 K) [mPa·s] | mass density ([2]; 308.15 K) [kg/m3] | viscosity ([2]; 313.15 K) [mPa·s] | mass density ([2]; 313.15 K) [kg/m3] | SMILES
1 | 1008.36 ± 1.2 | 243.49 ± 7.6 | 1004.38 ± 1.2 | 164.81 ± 4.6 | 1000.33 ± 1.2 | 113.44 ± 2.7 | 996.237 ± 1.2 | 80.93 ± 1.8 | – | – | – | – | – | – | – | – | CCC(=O)[O-].CC[NH+]1CCNCC1 [N-ethylpiperazinium propionate]
2 | 805.814 ± 1.3 | 2.577 ± 0.032 | 801.996 ± 1.3 | 2.272 ± 0.029 | 798.13 ± 1.4 | 2.01 ± 0.025 | 794.226 ± 1.4 | 1.786 ± 0.023 | – | – | – | – | – | – | – | – | CCCCO [butan-1-ol]
3 | – | – | – | – | – | – | – | – | 2.577 ± 0.032 | 805.814 ± 1.3 | 2.272 ± 0.029 | 801.996 ± 1.3 | 2.01 ± 0.025 | 798.13 ± 1.4 | 1.786 ± 0.023 | 794.226 ± 1.4 | CCCCO [butan-1-ol] + CCC(=O)[O-].CC[NH+]1CCNCC1
4 | 785.499 ± 1.4 | 1.091 ± 0.013 | 781.197 ± 1.4 | 0.9986 ± 0.012 | 776.853 ± 1.4 | 0.9139 ± 0.011 | 772.468 ± 1.5 | 0.8387 ± 0.01 | – | – | – | – | – | – | – | – | CCO [ethanol]
5 | – | – | – | – | – | – | – | – | 1.091 ± 0.013 | 785.499 ± 1.4 | 0.9986 ± 0.012 | 781.197 ± 1.4 | 0.9139 ± 0.011 | 776.853 ± 1.4 | 0.8387 ± 0.01 | 772.468 ± 1.5 | CCO [ethanol] + CCC(=O)[O-].CC[NH+]1CCNCC1
6 | 786.686 ± 1.4 | 0.558 ± 0.0068 | 781.993 ± 1.4 | 0.5261 ± 0.0065 | 777.249 ± 1.4 | 0.4966 ± 0.0061 | 772.475 ± 1.5 | 0.4702 ± 0.0058 | – | – | – | – | – | – | – | – | CO [methanol]
7 | – | – | – | – | – | – | – | – | 0.558 ± 0.0068 | 786.686 ± 1.4 | 0.5261 ± 0.0065 | 781.993 ± 1.4 | 0.4966 ± 0.0061 | 777.249 ± 1.4 | 0.4702 ± 0.0058 | 772.475 ± 1.5 | CO [methanol] + CCC(=O)[O-].CC[NH+]1CCNCC1
8 | 799.557 ± 1.3 | 1.941 ± 0.024 | 795.543 ± 1.3 | 1.728 ± 0.021 | 791.479 ± 1.4 | 1.545 ± 0.019 | 787.371 ± 1.4 | 1.385 ± 0.017 | – | – | – | – | – | – | – | – | CCCO [propan-1-ol]
9 | – | – | – | – | – | – | – | – | 1.941 ± 0.024 | 799.557 ± 1.3 | 1.728 ± 0.021 | 795.543 ± 1.3 | 1.545 ± 0.019 | 791.479 ± 1.4 | 1.385 ± 0.017 | 787.371 ± 1.4 | CCCO [propan-1-ol] + CCC(=O)[O-].CC[NH+]1CCNCC1
